From EP3917907B1, “MODULATORS OF POTASSIUM ION CHANNELS AND USES THEREOF” (Universitá Degli Studi Di Salerno, priority 2019, dated 2020)

Legend:
[1] = Solution stability (HPLC, extracellular solution, ambient temperature); format: physicochemical; details: percentage of degradation after 6 h at ambient temperature; 100 ppm in extracellular solution pH 7.4
Description: (§1) In order to study the solution stability and photostability of the potassium channel modulators object of the present invention, a stock solution of the proper analyte (1 mg/mL) in dimethylsulfoxide (DMSO) has been prepared. This solution has been then diluted to a concentration of 100 ppm using extracellular solution containing (in mM): 138 NaCl, 2 CaCl2, 5.4 KCl, 1 MgCl2, 10 glucose, and 10 HEPES, at pH 7.4, adjusted with NaOH. To measure solution stability, the diluted solutions have been maintained at ambient temperature for 6 h. To measure photostability, the diluted solutions have been irradiated for 6 h using a Oriel Sol3A Solar Simulator (Newport corporation, Irvine, CA, USA) with a 12x12 inches output beam. Aliquots of solution have been withdrawn after 6h and analyzed by HPLC using a Kinetex C18, 150 mm × 4.6 mm × 2.6 µm (Phenomenex, Bologna, Italy) as stationary phase and a mobile phase constituted by A: H2O/CH3CN (80:20) and B: CH3CN. Gradient elution has been performed from 20% to 90% of B in 7.50 minutes and from 90% to 20% of B in 1 minute. The pump flux has been set to 1.5 mL/min. Column has been thermostatted at 40°C during analysis. Results are espressed in Table 3 as percentage of degradation of the product calculated as ratio between the peak area of the analyte at time 0 (Pa0) and after 6h (Pa6) using the following formula: % degradation = (Pa0−Pa6)/Pa0 *100. [formula]

[2] = Photostability (HPLC, solar simulator irradiation); format: physicochemical; details: percentage of degradation after 6 h irradiation with solar simulator; 100 ppm in extracellular solution pH 7.4
Description: as §1

[3] = molecular target: T1, Kv7.2 (Homo sapiens, UniProt O43526); assay: Whole-cell patch-clamp on CHO cells transiently expressing Kv7.2; format: cell-based; details: CHO cells, mean±SEM, >1 activating, <1 inhibiting; for Idrug/Ictl at 0 mV: ratio of ramp-evoked Kv7.2 current amplitude in presence and absence of drug at 0 mV; for Idrug/Ictl at -40 mV: ratio of ramp-evoked Kv7.2 current amplitude in presence and absence of drug at -40 mV
T1 construct: expressed in transfected cells; host or cells: CHO cells (ATCC CRL-9618), transient transfection, pcDNA3.1(+)
Description: According to the experimental protocol, these plasmids were expressed individually or in combination (in particular of Kv7.2 and Kv7.3), together with a plasmid-expressing enhanced green fluorescent protein (Clontech, Palo Alto, CA) used as a transfection marker. Total cDNA in the transfection mixture was kept at 4 µg. CHO cells were grown in 100-mm plastic Petri dishes in Dulbecco's modified Eagle's medium containing 10% fetal bovine serum, nonessential amino acids (0.1 mM), penicillin (50 U/ml), and streptomycin ([…]) in a humidified atmosphere at 37°C with 5% CO2. The cells were plated on glass coverslips coated with poly-L-lysine, and transfected one day after plating with the appropriate cDNA using Lipofectamine 2000 (Life Technologies), according to the manufacturer's protocol.
Currents from CHO cells were recorded at room temperature (20-22°C) 24 hours after trasfection using the whole-cell configuration of the patch-clamp technique, with glass micropipettes of 3-5 MΩ resistance. During the recording, constant perfusion of extracellular solution was maintained. The extracellular solution contained (in mM): 138 NaCl, 2 CaCl2, 5.4 KCl, 1 MgCl2, 10 glucose, and 10 HEPES, at pH 7.4, adjusted with NaOH. The pipette (intracellular) solution contained (in mM): 140 KCl, 2 MgCl2, 10 EGTA, 10 HEPES, 5 Mg^2+-ATP, at pH 7.3-7.4, adjusted with KOH. Currents were recorded using an Axopatch-200A amplifier, filtered at 5 kHz, and digitized using a DigiData 1440A (Molecular Devices). The pCLAMP software (version 10.2, Molecular Devices) was used for data acquisition and analysis. To evaluate the activity of exemplary compounds on Kv7.2 (see Table 1), as well as on Kv7.1, Kv7.2/7.3, Kv7.3 and Kv7.4 channels for selected compounds (see Table 2), the cells were clamped at -80 mV and currents were elicited by 3-s voltage ramps from -80 mV to +20 mV in the presence and absence of each compound. […] The effects of drugs were expressed as shift in the ramp-voltage (ΔV) calculated at 20% of the maximal current (Miceli et al, Proc Natl Acad Sci U S A. 2013, 110(11):4386-91). Curves were fitted using the following equation: y=max/(1+x/EC50)n, where x is the drug concentration, n is the Hill coefficient and max is the maximal value achieved, as previously described (Ambrosino et al, Br J Pharmacol. 2013, 168(6):1430-1444). Data analysis and fit were performed using Sigmaplot (version 12.3).
Ramp-evoked Kv7.2 currents were analyzed by measuring the currents at -40 mV (a membrane potential value close to the activation threshold) and at 0 mV (a membrane potential value at which Kv7.2 conductance is largely saturated). In particular, -40 mV represents the threshold potential for spike initiation and 0 mV represents instead the membrane potential value at which maximal conductance of the channel is achieved.
In Table 1, the effect of exemplary compounds of the invention is expressed as the ratio between current amplitude in the presence (Idrug) and absence (Ictl) of the drug at these two membrane voltages. […]

| SMILES | Solution stability [1] | Photostability [2] | Idrug/Ictl at 0 mV [3] | Idrug/Ictl at -40 mV [3] |
| --- | --- | --- | --- | --- |
| CC(C)(C)CNC(=N)Nc1ccc2c(c1)CCN2Cc1ccc(F)cc1 [1-(1-(4-fluorobenzyl)indolin-5-yl)-3-neopentylguanidine] | A (degradation lower than 20%) | B (20%< degradation<40%) | 0.84±0.09 | 0.98±0.09 |
| CC(C)(C)CNC(=S)Nc1ccc2c(c1)CCN2Cc1ccc(F)cc1 [1-(1-(4-fluorobenzyl)indolin-5-yl)-3-neopentylthiourea] | A (degradation lower than 20%) | B (20%< degradation<40%) |  |  |
| CC(C)(C)CNC(=O)Nc1ccc2c(c1)CCN2Cc1ccc(F)cc1 [1-(1-(4-fluorobenzyl)indolin-5-yl)-3-neopentylurea] | A (degradation lower than 20%) | A (degradation lower than 20%) | 1.40±0.08 | 3.31±0.61 |
| CC1(C)[C@H]2CC[C@]1(CS(=O)(=O)Nc1ccc3c(c1)CCN3Cc1ccc(F)cc1)C(=O)C2 [1-((1R,4S)-7,7-dimethyl-2-oxobicyclo[2.2.1]heptan-1-yl)-N-(1-(4-fluorobenzyl)indolin-5-yl)methanesulfonamide] | C (degradation > 40%) | C (degradation > 40%) | 1.16±0.07 | 1.49±0.28 |
| CC1(C)[C@@H]2CC[C@@]1(CS(=O)(=O)Nc1ccc3c(c1)CCN3Cc1ccc(F)cc1)C(=O)C2 [1-((1S,4R)-7,7-dimethyl-2-oxobicyclo[2.2.1]heptan-1-yl)-N-(1-(4-fluorobenzyl)indolin-5-yl)methanesulfonamide] | C (degradation > 40%) | C (degradation > 40%) | 0.99±0.06 | 1.12±0.05 |
| O=S(=O)(CC1CCCCC1)Nc1ccc2c(ccn2Cc2ccc(F)cc2)c1 [1-cyclohexyl-N-(1-(4-fluorobenzyl)-1H-indol-5-yl)methanesulfonamide] | A (degradation lower than 20%) | A (degradation lower than 20%) |  |  |
| CCc1cccc(S(=O)(=O)Nc2ccc(NCc3ccc(OC)cc3)cc2)c1 [3-ethyl-N-(4-((4-methoxybenzyl)amino)phenyl)benze nesulfonamide] | B (20%< degradation<40%) | C (degradation > 40%) |  |  |
| COc1ccc([C@@H](C)Nc2ccc(NS(=O)(=O)C3CCCCC3)cc2)cc1 [(R)-N-(4-((1-(4-methoxyphenyl)ethyl)amino)phenyl) cyclohexanesulfonamide] | B (20%< degradation<40%) | C (degradation > 40%) |  |  |
| COc1ccc([C@H](C)Nc2ccc(NS(=O)(=O)C3CCCCC3)cc2)cc1 [(S)-N-(4-((1-(4-methoxyphenyl)ethyl)amino)phenyl) cyclohexanesulfonamide] | B (20%< degradation<40%) | C (degradation > 40%) |  |  |
| O=C(Cn1ccc2cc(NS(=O)(=O)CC3CCCCC3)ccc21)c1ccc(Br)cc1 [N-(1-(2-(4-bromophenyl)-2-oxoethyl)-1H-indol-5-yl)-1-cyclohexylmethanesulfonamide] | A (degradation lower than 20%) | B (20%< degradation<40%) |  |  |
| O=C(Cc1ccc(Cl)cc1)n1ccc2cc(NS(=O)(=O)C3CCCCC3)ccc21 [N-(1-(2-(4-chlorophenyl)acetyl)-1H-indol-5-yl) cyclohexanesulfonamide] | A (degradation lower than 20%) | A (degradation lower than 20%) |  |  |
| Cc1cc2cc(NS(=O)(=O)C3CCCCC3)ccc2n1Cc1ccc(F)cc1N [N-(1-(2-amino-4-fluorobenzyl)-2-methyl-1H-indol-5-yl)cyclohexanesulfonamide] | A (degradation lower than 20%) | B (20%< degradation<40%) |  |  |
| O=S(=O)(Nc1ccc2c(ccn2Cc2ccc(C(F)(F)F)cc2O)c1)C1CCCCC1 [N-(1-(2-hydroxy-4-(trifluoromethyl)benzyl)-1H-indol-5-yl)cyclohexanesulfonamide] | A (degradation lower than 20%) | A (degradation lower than 20%) |  |  |
| O=S(=O)(Nc1ccc2c(c1)CCN2Cc1ccc(F)cc1)C1CCCCC1 [N-(1-(4-fluorobenzyl)indolin-5-yl)cyclohexanesulfonamide] | C (degradation > 40%) | C (degradation > 40%) |  |  |
| CCc1cn(Cc2ccc(C(F)(F)F)cc2)c2ccc(NS(=O)(=O)C3CCCCC3)cc12 [N-(3-ethyl-1-(4-(trifluoromethyl)benzyl)-1H-indol-5-yl) cyclohexanesulfonamide] | A (degradation lower than 20%) | A (degradation lower than 20%) |  |  |
| O=S(=O)(Nc1ccc(NCc2ccc(F)cc2)c(F)c1)C1CCCCC1 [N-(3-fluoro-4-((4-fluorobenzyl)amino)phenyl) cyclohexanesulfonamide] |  |  | 0.83±0.10 | 0.78±0.15 |
| Cc1cc2c(c(C)c1NS(=O)(=O)C1CCCCC1)CCN2Cc1ccc(C(F)(F)F)cc1 [N-(4,6-dimethyl-1-(4-(trifluoromethyl)benzyl)indolin-5-yl)cyclohexanesulfonamide] | A (degradation lower than 20%) | B (20%< degradation<40%) |  |  |
| COc1ccc(CN(C)c2ccc(NS(=O)(=O)C3CCCCC3)cc2)cc1 [N-(4-((4-methoxybenzyl)(methyl)amino)phenyl) cyclohexanesulfonamide] | B (20%< degradation<40%) | B (20%< degradation<40%) |  |  |
| COc1ccc(CNc2ccc(NS(=O)(=O)C3CCCCC3)cc2)cc1 [N-(4-((4-methoxybenzyl)amino)phenyl) cyclohexanesulfonamide] | B (20%< degradation<40%) | C (degradation > 40%) |  |  |
| Cc1c(NS(=O)(=O)C2CCCCC2)ccc2c1ccn2Cc1ccc(C(F)(F)F)cc1 [N-(4-methyl-1-(4-(trifluoromethyl)benzyl)-1H-indol-5-yl)cyclohexanesulfonamide] | A (degradation lower than 20%) | B (20%< degradation<40%) |  |  |
| O=S(=O)(Nc1cc(F)c2c(ccn2Cc2ccc(C(F)(F)F)cc2)c1)C1CCCCC1 [N-(7-fluoro-1-(4-(trifluoromethyl)benzyl)-1H-indol-5-yl) cyclohexanesulfonamide] | A (degradation lower than 20%) | A (degradation lower than 20%) |  |  |
| O=S(=O)(Nc1cc(F)c2c(c1)CCN2Cc1ccc(C(F)(F)F)cc1)C1CCCCC1 [N-(7-fluoro-1-(4-(trifluoromethyl)benzyl)indolin-5-yl) cyclohexanesulfonamide] | B (20%< degradation<40%) | B (20%< degradation<40%) |  |  |
